Assay results as given in publication PMC6643437, “MicroRNA Biogenesis is Enhanced by Liposome-Encapsulated Pin1 Inhibitor in Hepatocellular Carcinoma” (Theranostics, 2019).

What was measured:
[1] = In vitro drug release by dialysis at pH 7.4; assay type: physicochemical; details: PBS pH 7.4 with 0.5% Tween-80, 37 °C
Method: In vitro release of API-1 from API-LP was investigated in a simulated blood pH environment (pH 7.4). Briefly, 1 mL API-LP diluted ten times in advance was used to determine the initial API-1 concentration, and the remaining 9 mL was dialyzed in a dialysis bag (3500 Da) in 50 mL PBS (pH 7.4) containing 0.5% Tween-80. The experiment was performed in triplicate at 37°C with shaking at 100 rpm for one week. Samples were withdrawn at prescheduled sampling time points and replaced with the same volume of release buffer each time. The samples were quantified by high performance liquid chromatography (HPLC).

[2] = tested on: SK-Hep1 cells; assay: MTT cell viability assay; assay type: cell-based, human; details: 72 h
Method: MTT assay was conducted to estimate cell viability. Briefly, SK-Hep1 cells were seeded in a 96-well culture plate (2000 cells/well) and then treated with different concentrations of API-LP or free API-1 at 72 h in a 5% CO2 incubator for indicated time. At the end of incubation, 10 µL of MTT solution (5 mg/mL) was added into each well. After a 3 h incubation, DMSO (100 μL) was added to dissolve the resultant purple formazan crystals. The absorbance was measured at 570 nm on Thermo Scientific Varioskan Flash Multimode Reader.

[3] = tested on: XPO5; assay: XPO5 subcellular distribution (confocal imaging, fractionation and Western blotting); assay type: cell-based, human; details: 1 μM, SK-Hep1
Method: SK-Hep1 cells cultured on glass coverslips after different treatments were fixed in 4% PFA for 20 min, permeabilized with 0.5% Triton X-100 for 10 min, blocked with 5% BSA, and then incubated with primary anti-XPO5 antibody at 4 °C overnight, followed by incubation with Alexa Fluor dye- conjugated secondary antibodies for 1 h. Then the nuclei were stained with DAPI for 5 min at room temperature before mounting in Immu-Mout (Thermo fisher). Confocal fluorescence images were captured using Leica TCS SP5 II confocal spectral microscope.
For total protein preparation, cells were lysed on ice for 20 min in the RIPA lysis buffer (Beyotime) with protease inhibitor cocktail (Bimake), followed by centrifugation at 12000 rpm for 10 min at 4 °C. The resultant proteins in the supernatants were stored at -80 °C or directly subjected to SDS-PAGE. For nuclear-cytoplasmic fractionation of proteins, RLN buffer (5 mM Tris-HCl pH 7.4, 1.5 mM MgCl2, 140 mM NaCl, 0.5% NP-40) was freshly prepared when used. SK-Hep1 cells were harvested and gently resuspended in 200 µL RLN buffer with protease inhibitor cocktail, followed by centrifugation at 300 g for 2 minutes at 4 °C, the resultant supernatants are the cytoplasmic proteins. […] The signals were detected using ECL reagents (Life Technologies).

[4] = Pharmacokinetic study in BALB/c mice; assay type: in vivo; details: 10 mg/kg i.v.
Method: The pharmacokinetic performance of API-LP was assessed in BALB/c mice. Following overnight fasting, six mice were randomized into two groups and received i.v. injection of free API-1 in 1 × PBS (pH 7.4) with 5% DMSO and API-LP in 1 × PBS (pH 7.4), respectively, at 10 mg/kg dose. At the prescheduled sampling time points, 20 μL blood samples were collected through caudal vein bleeding into heparinized centrifuge tube, followed by the centrifugation to obtain plasma, which was then stored at -80 °C until determination of the drug concentration.
For API-1 quantitation, plasma samples were thawed to room temperature. API-1 was extracted using acetonitrile and quantified by HPLC with QTRAP 5500 tandem mass spectrometry (LC/MS/ MS) system. The pharmacokinetic parameters based on the measured concentrations were calculated using GraphPad Prism (GraphPad Software).

[5] = In vivo safety study, single 100 mg/kg i.v. dose in BALB/c nude mice
Method: (§1) Safety of the liposomes in vivo was evaluated by blood biochemical analysis, H&E staining and Masson staining of tissues. Briefly, following i.v. administration of normal saline, LP, API-1 or API-LP in the BALB/c nude mice, the peripheral blood samples were collected using heparin and centrifuged for serum biochemical analysis. The tissue samples were simultaneously excised and fixed in 4% PFA. Blood ALT, AST, TBIL, ALB, UREA and total protein analyses were performed using BioAssay Systems blood chemistry assay kits following the manufacturer's instructions. The tissue samples were embedded in paraffin, then cut into 5 μm thick paraffin sections and subsequently placed on glass slide. The slides were stained with H&E. The histopathological alterations were observed and imaged with a light microscope (OLYMPUS BX43).

[6] = tested on: SK-Hep1 tumors; assay: SK-Hep1 xenograft in BALB/c nude mice; assay type: in vivo
Method: SK-Hep1 cells during the exponential-growth phase were collected and suspended in saline solution containing 50% Matrigel (Corning) at 5 × 10^7/mL. Then 100 μL of cells were injected into female BALB/c nude mice (5 weeks old) subcutaneously. Tumor growth was recorded every 3 days, and the tumor volume was calculated as ab^2/2 (a, long diameter; b, short diameter). All mice were randomized into 4 groups (8 mice per group) when the tumor volume reached 150-200 mm^3 and then were intravenously injected with normal saline, LP, free API-1 or API-LP at the 4 mg/kg dosage once every two days. At the end of the treatment, tumors were removed from mice and RNAs were extracted for miRNA detection.
Quantitative RT-PCR was used to assess miRNA expression levels. Total RNAs were extracted by TRIzol reagent (Invitrogen) from cells and transcribed by M-MLV reverse transcriptase (Invitrogen). Hairpin-it^TM real-time PCR miRNA kit for miR-122, let-7a, miR-29b and miR-146a were purchased from Shanghai GenePharma Co., Ltd (China). The miRNA levels were determined by Applied Biosystems StepOne Plus Real-Time PCR Systems using SYBR green master mix (Thermo fisher). Small endogenous nucleolar U6 RNA was used as internal control for miRNA normalization.

[7] = Blood biochemistry and hepatic histopathology in tumor-bearing mice after multiple dosing; assay type: in vivo; details: 4 mg/kg i.v. once every two days
Method: as §1
In order to facilitate the judgment of the positivity and degree of hepatic injury of mice, an ace hepatic injury mice model was built by treating mice with tetracycline by gavage at dose of 500 mg/kg. Mice were fasted after oral tetracycline for 30 h and then were executed. The serum ALT, AST, TBIL and hepatic histopathological examinations were performed to evaluate liver injuries.
The experimental tissues were fixed with formalin and embedded in paraffin. Sections with 5 μm in thickness were prepared for H&E staining, Masson staining and immunostaining with anti-RIP3 antibody (Abcam). The images were acquired on an Olympus digital camera attached to a light microscope.

[8] = tested on: SK-Hep1 tumors; set-up: method as in PMID 29381806; details: free API-1, mice, ref [15]; cited from earlier work
[9] = 4 mg/kg i.v. once every two days, SK-Hep1 xenograft

In the case of API-1, the “release in the first 12 h of dialysis” value [1] is reported as 81.6%, the “inhibition of SK-Hep1 cell proliferation (MTT)” value [2] is reported as “inhibited SK-Hep1 cell proliferation in a dose-dependent manner” and the “nucleus-to-cytoplasm export of XPO5” value [3] is reported as “restored the export of XPO5 to cytoplasm”. The “API-1 plasma concentration at 24 h postdose” value [4] was 34.8 ng/mL, the Clearance ([4]; n=3) was 72.75 ± 3.93 mL/h and the “Half-life t1/2” value ([4]; n=3) was 6.31 ± 0.66 h. The “haematological or liver toxicity (blood biochemistry)” value [5] was “neither free API-1 nor API-LP had haematological or liver toxicity”, the body weight [6, 9] was “did not impact body weight” and the “tumor growth and tumor volume” value [6, 9] was “significantly suppressed tumor growth and reduced tumor volume”. For the same substance, the “biogenesis of mature miRNAs in tumor tissues” value ([6]; 4 mg/kg, SK-Hep1 tumor tissues, real-time PCR) was “significantly increased biogenesis of miR-122, let-7a, miR-29b and miR-146a”, the “ALT Mean” value [7] was 39.67 U/L and the “AST Mean” value [7] was 133.67 U/L. The “TBIL Mean” value [7] was 1.70 µmol/L and the “efficacious dose to suppress HCC tumor growth in mice” value [8] was 5 mg/kg.
